Reference: patent US6586455B1, “Treatment of liposarcomas using a combination of thiazolidinediones and retinoid X receptor selective agonists” (The Salk Institute for Biological Studies, priority 1996, dated 2003)

Legend:
Format in all cases: cell-based
LS857 cells = assay: Differentiation / lipid accumulation of primary human liposarcoma cells LS857; conditions: 7 days
Experimental: (§1) Liposarcomas have presumably acquired one or more genetic defects that interfere with the course of normal adipocyte development. The observation that PPARγ is expressed consistently in these tumors raised the possibility that the malignant cells might be forced to complete the differentiation program by maximally activating the PPARγ pathway. To address this possibility, primary cells isolated from three human liposarcomas were cultured in vitro. Primary cell strains LS857 and LS175 were derived from well differentiated liposarcomas and LS707 was derived from an intermediate grade myxoid/round cell liposarcoma (see Table 3). High grade pleomorphic liposarcoma cells could not be expanded to sufficient numbers to permit studies of differentiation. A primary leiomyosarcoma cell line LM203 was cultured as a control. To confirm that these cultures consisted of malignant tumor-derived cells, cytogenetic analysis was performed.
(§2) When cultured in the presence of fetal bovine serum and insulin, conditions permissive for adipocyte differentiation, all three cell lines maintain a fibroblastic morphology. LS175 cells contained small amounts of stainable lipid under these conditions. […] The degree of morphologically recognizable differentiation varied from 40% in the LS857 cells to 75% in the LS175 cells. […] This experiment was performed at least twice with each cell strain with quantitatively and qualitatively similar results.
The ability of LG268 to promote differentiation of human liposarcoma cells was then examined. […] To further characterize the effects of PPARγ and RXR ligands on liposarcoma cells, the expression of adipocyte-specific markers were examined by Northern blotting. LS857 cells, like the tumor from which they were derived, express PPARγ mRNA. Treatment of LS857 cells with pioglitazone leads to the induction of two markers of terminal adipocyte differentiation, the MRNAs encoding aP2 and adipsin. […]

NIH-PPARγ cells = assay: Adipocyte differentiation, oil red O staining, NIH-3T3 fibroblasts expressing PPARγ; conditions: 7 days; for % lipid containing cells: NIH-PPARγ cells, range over three experiments
Experimental: (§3) Simultaneous exposure of competent cells to both PPARγ and RXR-specific ligand was investigated to determine if such combination might provide a stronger adipogenic signal than a PPARγ ligand alone. The ability of the. […] It has previously been shown that wild-type NIH-3T3 cells express RXRα, but not PPARγ. NIH-vector and NIH-PPARγ cells were cultured as described in the Examples.

NIH-vector cells = assay: Adipocyte differentiation, oil red O staining, NIH-vector cells; conditions: 7 days; for % lipid containing cells: range over three experiments
Experimental: as §3, with “Examples. […] After an additional four days of culture, cells were fixed and stained with oil red O. Data are presented in Table 1 as the range of morphologically recognizable differentiation observed for each line over three separate experiments.” for “Examples.”

LS175 cells = assay: Differentiation / lipid accumulation of primary human liposarcoma cells LS175; conditions: 10 μM, 7 days
Experimental: as §1
as §2, with “[…]. […]” for “This experiment was performed at least twice with each cell strain with quantitatively and qualitatively similar results.”

SMILES	lipid accumulation, oil red O, macroscopic view of culture dishes (LS857 cells; LS857, 5 μM thiazolidinedione, 50 nM LG268, four more days of culture)	adipocyte differentiation (in words) (LS857 cells; LS857 cells, 50 nM LG268, 10 μM pioglitazone)	% lipid containing cells (NIH-PPARγ cells; 50 nM LG268 alone)	stimulation of adipocyte differentiation (in words) (NIH-PPARγ cells; confluent NIH-PPARγ cells, 50 nM LG268, 1 μM pioglitazone)	% lipid containing cells (NIH-vector cells; 50 nM LG268 alone) [%]	adipogenic effect (in words) (NIH-vector cells)	degree of morphologically recognizable differentiation (LS857 cells; LS857 cells, 10 μM) [%]	% lipid containing cells (NIH-PPARγ cells; 1 μM pioglitazone alone)	degree of morphologically recognizable differentiation (LS175 cells) [%]	% lipid containing cells (NIH-vector cells; 1 μM pioglitazone alone) [%]
Cc1cc2c(cc1C1(c3ccc(C(=O)O)cn3)CC1)C(C)(C)CCC2(C)C [LG268, 6-[1-(8 pentamethyl-5,6,7,8-tetrahydronaphthalen-2-yl)cyclopropyl]nicotinic acid]	significant lipid accumulation	significant degree of adipocyte differentiation	50-65%	significant stimulation of adipocyte differentiation	0	no effect	–	–	–	–
CCc1ccc(CCOc2ccc(CC3SC(=O)NC3=O)cc2)nc1 (stereo not shown) [pioglitazone]	–	–	–	–	–	–	40	60-70%	75	0
